What all share (format): cell-based
Data set [1] has as its system H929 multiple myeloma cells. The experiment in a line: Anti-CD38 antibody-dependent cell-mediated cytotoxicity (Calcein-AM) in H929 cells. The conditions noted are these: 0.5 μM-2 μM for 24 hours. As for the experimental part: Multiple myeloma cells were incubated with Calcein-AM (Invitrogen, 2 μg/ml/1 million cells) for 30 min at 37° C. After washing, the cells were used for target cells. Mononuclear cells were obtained from healthy volunteer peripheral blood by Ficoll-Paque density centrifugation and used for effector cells. Both target and effector cells (E/T=15-20) were incubated for 3-4 h and culture supernatant were subjected to measurement of fluorescence using a 490 nm excitation filter and a 520 emission filter. Percent specific lysis was calculated as follows, % specific lysis=[experiment fluorescence−spontaneous fluorescence (no effector)]/[complete lysis (100% killing by detergent)−spontaneous fluorescence (no effector)]×100 Flow Cytometry-Based Ex Vivo ADCC Assay
Cells were stained with Calcein-AM and incubated with peripheral blood mononuclear cells at a ratio of 20:1 for 3 hours.

Data set [2] deals with RPMI-8226 multiple myeloma cells. The experiment in a line: CD38 surface level by FACS, RPMI-8226 cells. The conditions noted are these: various doses, 48 hours, FACS (FIG. 1A). Background: A flow cytometer gives signals particle by particle.
In data set [3] the test system is MM.1S multiple myeloma cells. The experiment in a line: CD38 surface level by FACS, MM.1S cells. Particulars: various doses, 48 hours, FACS (FIG. 1B).
The test system of a further data set is H929 cells. The data set can be described thus: Anti-CD38 ADCC in CFSE-stained H929 cells with PBMCs, flow cytometry. Particulars: pomalidomide 0.1 μM, Compound B 0.25, 0.5, 1 μM, 72 h, then anti-CD38 antibody 0.5 μg/ml 3 hours (FIG. 6). The protocol: The cells were then incubated with an anti-CD38 antibody (0.5 μg/ml) for 3 hours. Cytotoxicity was assessed by flow cytometry.

Data set [4] relates to patient-derived multiple myeloma cells. The data set can be described thus: Ex vivo anti-CD38 ADCC in autologous setting, patients' bone marrow aspirates. Particulars: anti-CD38 antibody 0.5 μg/ml with or without Compound B 0.5 μM, 72 hours (FIG. 3A). As for the experimental part: After bone marrow aspiration, fresh bone marrow mononuclear cells (MNC) were obtained by ammonium chloride based-lyses of red cells followed by washing in phosphate-buffered saline (PBS). […] The cells were incubated for 72 h at 37° C. in 5% CO2. The viability of primary MM cells in BM MNC was determined by near infrared (n-IR) viability dyes. The surviving CD138+MM cells were enumerated in the presence of Flow-Count Fluorospheres (Beckman Coulter, CA, USA), to determine absolute numbers of viable MM cells. The percentage of daratumumab-mediated ADCC was then calculated using the following formula: % lysis cells=100−[(absolute number of surviving CD138+ cells in the presence of daratumumab/absolute number of surviving CD138+ cells in the presence of control antibody)×100%]. Phenotypic analyses of MNC were performed using a single 5-color combination of monoclonal antibodies containing CD138-PE/CD38-APC/n-IR-viability (BioLegend, San Diego, Calif., USA). Plasma cells in BM MNC were identified by CD138-PE and CD38-APC staining, and expression of CD38 on plasma cells were determined (BD Biosciences, San Jose, Calif., USA). After incubation, cells were washed twice in PBS containing 2% BSA, and then resuspended in PBS for analysis on a Fortessa cytometer (Becton Dickinson, Mountain View, Calif.). […]
The average cytotoxicity (mean±SD) was calculated from 6 patients' samples (see also FIG. 3B).

Structures are written as SMILES.

For the molecule `O=C(CCCCCCNC(=O)c1cnc(N(c2ccccc2)c2ccccc2)nc1)NO` [Compound A, 2-(diphenylamino)-N-(7-(hydroxyamino)-7-oxoheptyl)pyrimidine-5-carboxamide], the Percent specific lysis entry in data set [1] (PBMC 20:1 for 3 hours (FIG. 2A)) is “increased as concentration of Compound A increased”. In addition, the percent augmentation entry in data set [1] (PBMC 20:1 for 3 hours (FIG. 2B)) was “increased as concentration of Compound A increased”. Besides, the “percentage of CD38 positive cells” value in data set [2] and in data set [3] was “increased” in each case.

On to `O=C(CCCCCCNC(=O)c1cnc(N(c2ccccc2)c2ccccc2Cl)nc1)NO` [Compound B, 2-((2-chlorophenyl)(phenyl)amino)-N-(7-(hydroxyamino)-7-oxoheptyl)pyrimidine-5-carboxamide], for which the “percentage of CD38 positive cells” value in data set [2] and in data set [3] was “increased” throughout. Also, the “anti-CD38 antibody-induced cytotoxicity (ADCC)” value with H929 cells is “enhanced”. Further, the “anti-CD38 antibody dependent cell mediated cytotoxicity” value in data set [4] is recorded as “increased”.

Source of the values: patent US11337975B2, “Pharmaceutical combinations comprising a histone deacetylase inhibitor and a CD38 inhibitor and methods of use thereof” (Acetylon Pharmaceuticals, Inc., priority 2016, dated 2022).
